Laboratory results from PubChem BioAssay (NCI).
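Step 1: Grow cells in 96-well plates. Step 2: Expose to compound for 48 hours at 5 concentrations. Step 3: Interpolate endpoints linearly; if unreached, use highest concentration. GI50 = concentration required for 50% inhibition of growth. Definition used: TGI = concentration required for complete inhibition of growth.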

What was measured:
Assay in all cases: DTP human tumour cell line panel, 48 h
[1] = tested on: OVCAR-4 ovarian
[2] = tested on: NCI/ADR-RES ovarian
[3] = tested on: MOLT-4 leukemia
[4] = tested on: HT29 colon
[5] = tested on: IGROV1 ovarian
[6] = tested on: SR leukemia
[7] = tested on: K-562 leukemia
[8] = tested on: CCRF-CEM leukemia
[9] = tested on: EKVX NSCLC
[10] = tested on: 786-0 renal

| SMILES | GI50 [1] | TGI [1] | GI50 [2] | TGI [2] | GI50 [3] | TGI [3] | GI50 [4] | TGI [4] | GI50 [5] | TGI [5] | GI50 [6] | TGI [6] | GI50 [7] | GI50 [8] | GI50 [9] | TGI [9] | GI50 [10] | TGI [10] | TGI [7] | TGI [8] |
| --- | --- | --- | --- | --- | --- | --- | --- | --- | --- | --- | --- | --- | --- | --- | --- | --- | --- | --- | --- | --- |
| COC1=CC(c2ccc[nH]2)=N/C1=C\c1[nH]c(C)c(C(=O)CCCCC(=O)NC(C)(C)C)c1C | 1780 nM | 6.29 µM | 1610 nM | 3.21 µM | 854 nM | 4.29 µM | 552 nM | 3.11 µM | 2100 nM | 4.59 µM | 395 nM | 2.35 µM | 1940 nM | 526 nM | 1960 nM | 13 µM | 1700 nM | 3.36 µM |  |  |
| COc1ccc(/C=C/C(=O)c2ccc(O)c(CN3CCN(c4cc5c(cc4F)c(=O)c(C(=O)O)cn5C4CC4)CC3)c2)cc1 | 54900 nM | > 100 µM | 4440 nM | > 100 µM | 5290 nM | > 100 µM | 1080 nM | > 100 µM | 1270 nM | > 100 µM | 354 nM | 14.9 µM | 463 nM | 805 nM | 8350 nM | > 100 µM | 854 nM | > 100 µM | > 100 µM | > 100 µM |
| CNCCCn1c2c(c3ccc([N+](=O)[O-])cc3c1=O)C(=O)c1cc(OC)cnc1-2 | 173 nM | 10.1 µM | 61.3 nM | 1.08 µM | 30.6 nM | 0.293 µM | 55.8 nM | 0.38 µM | 205 nM | 2 µM | 12.3 nM | 1.75 µM | 43.5 nM | 36.5 nM | 273 nM | 5.83 µM | 36.2 nM | 0.189 µM | 1.53 µM | 0.625 µM |
| COC(=O)c1ccccc1OCc1cc(=O)oc2ccc(C)cc12 |  | > 63.4 µM |  | > 100 µM |  | > 100 µM |  | > 100 µM |  | > 100 µM |  | > 100 µM |  |  |  | > 100 µM |  | > 100 µM | > 100 µM | > 100 µM |
| O=C1C(N2CC2)=C(N2CC2)C(=O)C(N2CC2)=C1N1CC1 | 2060 nM | 7.65 µM |  | 1.3 µM | 765 nM | > 100 µM | 181 nM | 15.1 µM | 312 nM | 2.38 µM | 34.5 nM | > 100 µM | 785 nM | 1820 nM | 1700 nM | 6.88 µM | < 28.5 nM | 0.984 µM | > 100 µM | > 100 µM |
| COc1ccc(C2CC(C)(O)Oc3cc4c(cc32)OCO4)cc1 (configuration not stated) |  | > 100 µM |  | > 78.2 µM |  | 88.6 µM |  | > 82.6 µM |  | > 100 µM |  | > 78.9 µM |  |  |  | > 100 µM |  | > 100 µM | 98.7 µM | > 82.8 µM |
| O=C(O)c1cc2ccc3ccccc3c2oc1=O |  | > 100 µM |  | > 100 µM |  | > 100 µM |  | > 100 µM |  | > 100 µM |  | > 100 µM |  |  |  | > 100 µM |  | > 100 µM | > 100 µM | > 100 µM |
